Data as given in patent US6096874A (Board of Regents, the University of Texas System, priority 1995, dated 2000).
Like-named read-outs stand apart in the source and are kept apart here.

Assays:
[1] = test system: breast tumors; experiment: PET imaging of ER+ breast tumors in patients; type: in vivo, human; details: for SUV in lesion of patients responding poorly to tamoxifen therapy: 4/5 patients
[2] = in vivo; parameters: species or system rat; details: for Tumor uptake: 120 min; for tissue uptake at 0.5 h / tissue uptake at 2 h / tissue uptake at 4 h: iv; for tissue uptake at 0.5 h: 30 min
Procedure: In animal tissue distribution studies, each rate was given 8.9 μCi (0.15 ml) tracer intravenously. The tumor-bearing rats were killed at 1, 3, 6 and 24 h. […] The amount of DES given should occupy tumor estrogen receptor sites. The methods for inducing tumors in rats was as described by those of skill in the art (radiology). […]
Female Fisher 344 rats (250-275 g) (Harlan, Inc., Indianapolis, Ind.) were inoculated with mammary tumor cells using the 13762 tumor cell line (s.c. 10^5 cells/rat). After 14 days, a tumor size of 1-2 cm was observed. For ^131 I-ITX studies, five groups of rats (N=3/group) were anesthetized with ketamine (10-15 mg/rat). The trans ^131 I-ITX was given to four of the five groups (8.9 μCi/rat, i.v.) and biodistribution was studied at 1, 3, 6 and 24 h intervals. In blocking studies, the fifth group of rats was given diethylstilbestrol (DES) (1.2 mg/rat) for 1 h, followed by 8.9 μCi of ^131 I-ITX; biodistribution was studied 6 h later. The tissues were collected at different time intervals. The tissues were weighted and counted for radioactivity. The percent of injected dose per gram of tissue weight was calculated. […]

[3] = 2 h, pretreated with DES (blocking)
[4] = rat, blood, read-out: Blood uptake
[5] = rat, bone, read-out: Bone uptake
[6] = rat, kidney, read-out: Kidney uptake
[7] = rat, liver, read-out: Liver uptake
[8] = rat, lung, read-out: Lung uptake
[9] = rat, muscle, read-out: Muscle uptake
[10] = rat, tumor, read-out: Tumor uptake
[11] = rat, uterus, read-out: Uterus uptake

With `CCN(CC)CCOc1ccc(/C(=C(/CCC[18F])c2ccccc2)c2ccccc2)cc1` [[^18 F]FTX, (trans)[^18 F]Fluoromethyl-N,N-diethyltamoxifen] the “SUV in lesion of patients responding poorly to tamoxifen therapy” value ([1]; listed as 18 F-tamoxifen) was under 2.0, the “SUV in lesion of patients responding poorly to tamoxifen therapy” value ([1]; listed as [^18 f]fluorotamoxifen) was “less than 2.0” and the SUV ([1]; patient 1, left breast) was 1.6. For the same molecule, the SUV ([1]; patient 1, spine) was 6.2, the SUV ([1]; patient 1, sternum) was 4.2 and the SUV ([1]; patient 3, left breast) was 2.6. It also gave an SUV ([1]; patient 4, right axilla) of 1.3, an SUV ([1]; patient 5, lung) of 3.3 and an SUV ([1]; patient 6, left axilla) of 2.9. For the same molecule, the SUV ([1]; patient 7, skull) was 0.9, the SUV ([1]; patient 8, neck) was 2.4 and the SUV ([1]; patient 9, scapula) was 1.3. For the same molecule, the SUV ([1]; patient 10, spine) was 6.3, the Blood uptake [2, 3] was 0.102 % injected dose/gram tissue and the Bone uptake [2, 3] was 0.278 % injected dose/gram tissue. For the same molecule, the Kidney uptake [2, 3] was 1.241 % injected dose/gram tissue, the Liver uptake [2, 3] was 7.242 % injected dose/gram tissue and the Lung uptake [2, 3] was 2.084 % injected dose/gram tissue. For the same molecule, the Muscle uptake [2, 3] was 0.131 % injected dose/gram tissue, the Uterus uptake [2, 3] was 0.435 % injected dose/gram tissue and the Tumor uptake [2, 3] was 0.24±0.017 % injected dose/gram tissue. The Tumor uptake ([2]; 2 h, pretreated with DES (blocking), listed as [^18 F]FLUOROMETHYL-N,N-DIETHYL-TAMOXIFEN) was 0.244 % injected dose/gram tissue, the Tumor uptake ([2]; 2 h) was 0.405 % injected dose/gram tissue and the tissue uptake at 0.5 h [2, 4] was 0.169 %ID/g. It also gave a tissue uptake at 2 h ([2]; rat, blood, 2 h, read-out: Blood uptake) of 0.114 %ID/g, a tissue uptake at 4 h [2, 4] of 0.069 %ID/g and a tissue uptake at 0.5 h [2, 5] of 0.264 %ID/g. For the same molecule, the tissue uptake at 2 h ([2]; rat, bone, 2 h, read-out: Bone uptake) was 0.482 %ID/g, the tissue uptake at 4 h [2, 5] was 0.258 %ID/g and the “Tissue uptake findings (in words)” value ([2]; rat, in vivo) was “increased uptake in the tumor and uterus can be blocked by pretreatment with diethylstilbestrol (DES)”. The tissue uptake at 0.5 h [2, 6] was 1.71 %ID/g, the tissue uptake at 2 h ([2]; rat, kidney, 2 h, read-out: Kidney uptake) was 2.08 %ID/g and the tissue uptake at 4 h [2, 6] was 0.652 %ID/g. It also gave a tissue uptake at 0.5 h [2, 7] of 6.36 %ID/g, a tissue uptake at 2 h ([2]; rat, liver, 2 h, read-out: Liver uptake) of 6.93 %ID/g and a tissue uptake at 4 h [2, 7] of 6.5 %ID/g. It also gave a tissue uptake at 0.5 h [2, 8] of 3.82 %ID/g, a tissue uptake at 2 h ([2]; rat, lung, 2 h, read-out: Lung uptake) of 3.5 %ID/g and a tissue uptake at 4 h [2, 8] of 1.31 %ID/g. For the same molecule, the tissue uptake at 0.5 h [2, 9] was 0.183 %ID/g, the tissue uptake at 2 h ([2]; rat, muscle, 2 h, read-out: Muscle uptake) was 0.234 %ID/g and the tissue uptake at 4 h [2, 9] was 0.093 %ID/g. It also gave a tissue uptake at 0.5 h [2, 10] of 0.256 %ID/g, a tissue uptake at 2 h ([2]; rat, tumor, 2 h, read-out: Tumor uptake) of 0.41 ± 0.07 %ID/g and a tissue uptake at 4 h [2, 10] of 0.284 %ID/g. For the same molecule, the tissue uptake at 0.5 h [2, 11] was 0.536 %ID/g and the tissue uptake at 4 h [2, 11] was 0.364 %ID/g.
